# Experiments:
# [1] = tested on: reactive astrocytes / GL261 glioma; experiment: Reactive astrocyte depletion with GCV in GL261-bearing WT or Gfap-TK mice; format: in vivo, mouse
# Excerpt: FIGS. 1A-I illustrate that depletion of Tumor-associated astrocytes (TAAs) regress glioblastoma progression. (FIG. 1A) Representative immunofluorescence images of reactive TAAs stained for GFAP (cyan) crowning a glioblastoma (GBM) tumor (GFP^+-GL261, white), and nuclei (DAPI, yellow). The right image is an expansion of the area marked by the white box. (n=3 biologically independent experiments, 3 mice per group). Scale bar, 1000 m; (FIGS. 1B-I) WT (wild type), or Gfap-TK GBM-bearing mice were treated daily with Ganciclovir (GCV, 25 mg/kg) from day 10 until the experimental endpoint as illustrated in FIG. 1B. (FIG. 1C) representative immunofluorescence images of reactive astrocyte depletion at the tumor margins (GFP^+-GL261, white), as detected by GFAP staining (cyan). Scale bars, 500 m. Data are representative of three independent experiments with n=4 mice/group. (FIGS. 1D-G) Tumor size in GCV-treated WT or Gfap-TK GBM-bearing littermates. (FIGS. 1D-E) Representative images of GL261-derived bioluminescence from each group are shown in FIG. 1D and quantification of tumor size in FIG. 1E. Data are representative of five independent experiments with n=6 mice/group. (FIGS. 1F-G) Representative images from each group, 17 days after GL261 cell implantation, are shown in FIG. 1F with quantification of tumor size in FIG. 1G, tumor (GL261 cells in purple), and nuclei (DAPI; white). Scale bar, 1000 m. Data are representative of three independent experiments with n=5 mice/group. (FIG. 1H) Bodyweight assessment of mice from FIGS. 1D-E. (FIG. 1I) Kaplan-Meier curves assessing overall survival. Data are representative of three independent experiments with n=8 mice/group. Data in FIGS. 1D-H are shown as mean±s.e.m. P values were determined by two-way ANOVA (FIGS. 1D-H) or Log rank (Mantel-Cox) test (FIG. 1I). *P<0.05, **P<0.01, ***P<0.001, n.s. not significant.
# For intracranial mouse glioma, mice were anesthetized, positioned in a Stereotaxic Alignment System, and injected with 1.5×10^4 GL261 or CT-2A cells in 2 μl of DMEM. Injections were made to the right frontal lobe, approximately 2.5 mm lateral and 0.1 mm caudal from bregma at a depth of 3 mm. In-vivo bioluminescence imaging, following XenoLight D-luciferin Potassium Salt administration (150 mg/kg) i.p. administration, was determined using IVIS Spectrum system (PerkinElmer). Ganciclovir (GCV, Cymevene, Roche #SAP-10051872; 25 mg/kg), Diphtheria-toxin (DT, Sigma-Aldrich, #D0564; 1100 ng/mice), or vehicle control (PBS) were administered daily following tumor establishment (day 10), as previously described (Mayo, L., et al. Nat Med (2014) 20: 1147-1156). CD8^+ T cell depletion was performed using an anti-CD8 monoclonal antibody ([…], Bioxcell) or an isotype control monoclonal antibody (2A3, Bioxcell), as previously described (Takenaka, M. C. et al. Control of tumor-associated macrophages and T cells in glioblastoma via AHR and CD39. Nat Neurosci 22, 729-740 (2019)). GBM-bearing mice were intraperitoneally injected (0.1 mg/mouse) with an anti-CD8 or an isotype control mAbs, 1 day before, and 7 days after, GCV administration. CD8 T-cell depletion was validated by FACS analysis using a Sony SH800 FACS instrument (Sony Biotechnology). Data analysis was performed using FlowJo v10 (TreeStar, USA). The following reagents were used for analysis: anti-CD45 (1:100; 30-F11, Biolegend, #103106), anti-CD3[…] (1:50; 145-2C11, Biolegend #100335), and anti-CD8a (1:100; 53-6.7, Biolegend, #100765).
# To study the role of TAAs in glioblastoma, the course of tumor progression was analyzed in mice expressing the herpes simplex virus thymidine kinase (HSVtk) under the Gfap promotor (Gfap-TK), in which Ganciclovir (GCV) administration can deplete reactive astrocytes. For this purpose, GFP^+GL261-Luc (GL261) was intracranially injected […], into syngeneic C57Bl/6 WT or into Gfap-TK littermates. […]
# glioma = settings: OXPHOS-targeting drugs; cited from earlier work
# [2] = tested on: GL261 and CT-2A glioma cells; experiment: Cell viability assay (Annexin V/DAPI FACS) of glioma cells; format: cell-based, mouse; settings: GL261 or CT-2A in LPDS-media; cholesterol 250 ng/ml for 5 days; FIGS. 5F-G
# Protocol: FIGS. 5A-N illustrate that astrocyte-derived cholesterol supports glioma survival. (FIGS. 5A-D) Real-time changes in the ECAR (FIGS. 5A-B) and oxygen consumption rate (OCR) (FIGS. 5C-D) of GL261 glioma cells, cultured in media supplemented with full serum (FCS, fetal calf serum) or lipoprotein-deprived serum (LPDS, Lipoprotein-deficient serum) for 18 hours and measured using Seahorse. Oligo, oligomycin; FCCP, carbonyl cyanide4-(trifluoromethoxy) phenylhydrazone; R/A, rotenone plus antimycin A; 2-DG, 2-deoxy-d-glucose. Glycolysis, glycolytic capacity and glycolytic reserve were extracted from the ECAR reading, and basal respiration, adenosine triphosphate (ATP) production, Maximal respiration, and spare respiratory capacity were determined based on OCR. Data are representative of two independent experiments (n=6 technical replicates per experiment). (FIG. 5E) Percentage of cell death of GL261 and CT-2A glioma cells, or primary astrocytes, cultured in FCS or LPDS for 5 days; as determined by Annexin-V assay (n=5 independent experiments). […] Representative flow cytometry plots of Annexin-V/DAPI staining from each group are shown in FIG. 5F and quantification analyses of cholesterol rescue are in FIG. 5G (n=5 biologically independent experiments). (FIGS. 5H-K) Representative images and quantification of LDLR expression (Immunoblot, FIGS. 5H-I) and cell death via FACS analysis of Annexin V/DAPI staining (FIGS. 5J-K) in response to endogenous LXR agonists (24-OHC) or Mock (DMSO) treatment in GL261 and CT-2A cells (n=3 biologically independent experiments). […] (FIGS. 5L-M) Representative flow cytometry plots of murine GL261 and CT-2A glioma cells co-cultured for 5 days with primary mouse astrocytes are shown in FIG. 5L and quantification analyses in FIG. 5M (n=4 biologically independent experiments). (FIG. 5N) quantification analyses of human U87EGFRvIII (U87) glioma cells co-cultured with human primary astrocytes for 5 days (n=3 biologically independent experiments). […]
smiles,measurement,setting,value
"Nc1nc(O)c2ncn(COC(CO)CO)c2n1 [GCV, Ganciclovir]",reactive astrocytes around the tumors (GFAP staining),"[1]; GBM-bearing Gfap-TK mice (not in WT mice), GCV 25 mg/kg daily from day 10, FIG. 1C",specific ablation of reactive astrocytes
same,weight loss,"[1]; GCV-treated GL261-bearing Gfap-TK mice vs WT littermates, FIG. 1H",significantly attenuates the weight loss
same,survival,"[1]; GCV-treated GL261-bearing Gfap-TK mice vs WT littermates, FIG. 1I",dramatically improves their survival
same,accumulation of IBA-1+ TAMs in the TME,"[1]; GCV-treated GL261-bearing Gfap-TK vs WT mice, day 17, FIGS. 3D-E",significantly reduces
same,"tumor size (bioluminescence, histology)","[1]; GL261-bearing Gfap-TK mice, GCV 25 mg/kg daily from day 10, FIGS. 1D-G",dramatic tumor regression
same,"GBM progression (tumor size, bioluminescence)","[1]; GL261-bearing WT mice, GCV 25 mg/kg daily vs vehicle, FIG. 7A",neither GCV treatment of WT mice nor genetic insertion of the HSVtk into Gfap-TK mice (without GCV treatment) affected GBM progression
same,survival,"[1]; GL261-bearing WT mice, GCV vs vehicle, FIG. 7E",had no effect on survival
Cc1nc(-c2nc(-c3ccc(OC(F)(F)F)cc3)no2)nn1Cc1cccc(N2CCC(S(C)(=O)=O)CC2)c1 [IACS-010759],glioma proliferation and cell death,glioma,inhibit glioma proliferation and induce cell death
CC(C)CCC[C@@H](C)[C@H]1CC[C@H]2[C@@H]3CC=C4C[C@@H](O)CC[C@]4(C)[C@H]3CC[C@]12C [cholesterol],rescue of glioma viability from lipoprotein-bound cholesterol deprivation,[2],overcame the deleterious effects of lipoprotein-bound cholesterol deprivation on glioma viability
CN(C)C(=N)N=C(N)N [metformin],glioma proliferation and cell death,glioma,inhibit glioma proliferation and induce cell death

# — patent US20250082766A1, “TREATMENT OF BRAIN TUMORS BY TARGETING THE CHOLESTEROL PATHWAY IN ASTROCYES” (Ramot at Tel-Aviv University Ltd., priority 2022, published 2025)
